# Assays:
# beagles, blood pressure = assay: Antihypertensive activity on anesthetized beagles (intravenously); format: in vivo, dog (beagles)
# Method: Antihypertensive activities of 5-amino-N-cyano-N'-[2-(2-chlorophenyl)ethyl]-3-pyridinecarboximidamide (N-cyano-N'-[2-(2-chlorophenyl)ethyl]-5-(3aminopyridine)carboximidamide; Compound No. 6) according to the present invention was assessed by comparison with those of N-cyano-N'-[2-(2-chlorophenyl)ethyl]-3-pyridinecarboximidamide which is thought to be a wellknown compound most similar to the compound of the present invention (see Japanese Patent Laid-Open Publication No. 163061/1991).
# Experiments were carried out with beagles (body weight, 9.2-10.4 kg) under anesthetization by intravenous administering 30 mg/kg of pentobarbital sodium. A cannula was inserted into the right femoral artery for measuring blood pressure. […]
# [1] = tested on: spontaneously hypertensive rats (SHR), mean blood pressure; assay: Antihypertensive activities on spontaneously hypertensive rat (intravenously); format: in vivo, rat (male spontaneously hypertensive rats; details: iv, anesthetized male SHR, i.v., cumulative dosing, read-out: ED20 (the dose which lowered the blood pressure by 20%)
# Method: Animals were anesthetized with urethane: α-chloralose.
# A cannula was inserted into the carotid artery for measuring the mean blood pressure via a pressure transducer. A test compound was cumulatively administered through the cannula inserted into the femoral vein with an interval of 30 minutes. Variation of blood pressure was determined as the percentage change in the blood pressure before administration of the test compound, and the ED20 (the dose which lowered the blood pressure by 20%) was calculated from a dose-response curve.
# male SD rats = assay: Acute toxicity, oral, Compound No. 6; format: in vivo, rat (male SD rats, 5 weeks old); details: 50 mg/kg, male SD rats
# Method: (§1) Acute toxicity of 5-amino-N-cyano-N'-[2-(2-chlorophenyl)ethyl]-3-pyridinecarboximidamide (Compound No. 6) of the present invention on oral administration was examined with male SD rats (5 weeks old). As a result, no rats died at the dose of 50 mg/kg. LD50 was in the range over 50 mg/kg.
# [2] = Acute toxicity, oral, Compound No. 6; format: in vivo, rat (male SD rats, 5 weeks old); details: rat, in vivo, male SD rats (5 weeks old)
# Method: as §1
# [3] = tested on: renal hypertensive beagles, blood pressure; assay: Antihypertensive activities on renal hypertensive beagles (oral); format: in vivo, dog (2-kidney-1-clipped renal hypertensive beagles)
# Method: Beagles (body weight, 9.0-11.0 kg) were anesthetized with 30 mg/kg of pentobarbital sodium intravenously. The left renal artery was carefully exposed through a flank incision, and wound with two silk sutures and ligated together with a 18G needle (external diameter; 1.2 mm) at two positions with the distance of 5 mm. A polyethylene tube for the measurement of blood pressure (IMG, PE-100) was inserted into the femoral artery, and the other terminal of the tube was exteriorized at the back of the neck. The polyethylene tube was filled with physiological saline containing 500 U/ml of heparin and sealed with a steel wire plug except on the measurement of the blood pressure. Antibiotics (penicilline and streptomycin, manufactured by Meiji Seika) were administered intramuscularly for three days after operation to prevent infections.
# After 5-amino-N-cyano-N'-[2-(2-chlorophenyl)ethyl]-3-pyridinecarboximidamide was put into a No. 3 gelatin capsule, a gap was filled with lactose (100 mesh). The capsule was administered orally, and blood pressure was measured for 24 hours after administering the drug. Measurement was carried out without anesthetization under suspension with sling sheet. Blood pressure was measured by connecting the tube for measuring blood pressure to a pressure transducer (TP-400T; manufactured by Nihon Kohden) and recorded on a polygraph.
smiles,measurement,setting,value
"N#CNC(=NCCc1ccccc1Cl)c1cncc(N)c1 [Compound No. 6, 5-amino-N-cyano-N'-[2-(2-chlorophenyl)ethyl]-3-pyridinecarboximidamide]",decrease in blood pressure,"beagles, blood pressure; i.v., 3-30 μg/kg",Dose-dependent decrease in blood pressure was observed
same,duration of the antihypertensive action,"beagles, blood pressure; i.v., dose 3 μg/kg",10 min
same,Antihypertensive activity (%),"beagles, blood pressure; i.v., dose 3 μg/kg, 0 min after dosage",0.0%
same,Antihypertensive activity (%),"beagles, blood pressure; i.v., dose 3 μg/kg, 1 min after dosage",-3.9%
same,Antihypertensive activity (%),"beagles, blood pressure; i.v., dose 3 μg/kg, 2 min after dosage",-12.8%
same,Antihypertensive activity (%),"beagles, blood pressure; i.v., dose 3 μg/kg, 3 min after dosage",-10.3%
same,Antihypertensive activity (%),"beagles, blood pressure; i.v., dose 3 μg/kg, 5 min after dosage",-6.4%
same,Antihypertensive activity (%),"beagles, blood pressure; i.v., dose 3 μg/kg, 7.5 min after dosage",-3.9%
same,Antihypertensive activity (%),"beagles, blood pressure; i.v., dose 3 μg/kg, 10 min after dosage",-3.9%
same,duration of the antihypertensive action,"beagles, blood pressure; i.v., dose 10 μg/kg",45 min
same,Antihypertensive activity (%),"beagles, blood pressure; i.v., dose 10 μg/kg, 0 min after dosage",0.0%
same,Antihypertensive activity (%),"beagles, blood pressure; i.v., dose 10 μg/kg, 1 min after dosage",-16.0%
same,Antihypertensive activity (%),"beagles, blood pressure; i.v., dose 10 μg/kg, 2 min after dosage",-22.7%
same,Antihypertensive activity (%),"beagles, blood pressure; i.v., dose 10 μg/kg, 3 min after dosage",-26.7%
same,Antihypertensive activity (%),"beagles, blood pressure; i.v., dose 10 μg/kg, 5 min after dosage",-26.7%
same,Antihypertensive activity (%),"beagles, blood pressure; i.v., dose 10 μg/kg, 7.5 min after dosage",-26.7%
same,Antihypertensive activity (%),"beagles, blood pressure; i.v., dose 10 μg/kg, 10 min after dosage",-26.7%
same,Antihypertensive activity (%),"beagles, blood pressure; i.v., dose 10 μg/kg, 15 min after dosage",-20.0%
same,Antihypertensive activity (%),"beagles, blood pressure; i.v., dose 10 μg/kg, 20 min after dosage",-16.0%
same,Antihypertensive activity (%),"beagles, blood pressure; i.v., dose 10 μg/kg, 30 min after dosage",-13.3%
same,Antihypertensive activity (%),"beagles, blood pressure; i.v., dose 10 μg/kg, 45 min after dosage",-6.7%
same,duration of the antihypertensive action,"beagles, blood pressure; i.v., dose 30 μg/kg",60 min
same,Antihypertensive activity (%),"beagles, blood pressure; i.v., dose 30 μg/kg, 0 min after dosage",0.0%
same,Antihypertensive activity (%),"beagles, blood pressure; i.v., dose 30 μg/kg, 1 min after dosage",-29.3%
same,Antihypertensive activity (%),"beagles, blood pressure; i.v., dose 30 μg/kg, 2 min after dosage",-40.0%
same,Antihypertensive activity (%),"beagles, blood pressure; i.v., dose 30 μg/kg, 3 min after dosage",-42.7%
same,Antihypertensive activity (%),"beagles, blood pressure; i.v., dose 30 μg/kg, 5 min after dosage",-46.7%
same,Antihypertensive activity (%),"beagles, blood pressure; i.v., dose 30 μg/kg, 7.5 min after dosage",-44.0%
same,Antihypertensive activity (%),"beagles, blood pressure; i.v., dose 30 μg/kg, 10 min after dosage",-42.7%
same,Antihypertensive activity (%),"beagles, blood pressure; i.v., dose 30 μg/kg, 15 min after dosage",-40.0%
same,Antihypertensive activity (%),"beagles, blood pressure; i.v., dose 30 μg/kg, 20 min after dosage",-36.0%
same,Antihypertensive activity (%),"beagles, blood pressure; i.v., dose 30 μg/kg, 30 min after dosage",-33.3%
same,Antihypertensive activity (%),"beagles, blood pressure; i.v., dose 30 μg/kg, 45 min after dosage",-24.0%
same,Antihypertensive activity (%),"beagles, blood pressure; i.v., dose 30 μg/kg, 60 min after dosage",-16.0%
same,antihypertensive activity determined with the passage of time,"beagles, blood pressure; summary statement",extremely potent and sustainable
same,ED20,[1],4.6 µg/kg
same,deaths,male SD rats,no rats died
same,LD50,[2],> 50000 µg/kg
same,Average blood pressure,"[3]; 0.25 mg/kg p.o., 0 hour after administration",122.4 ± 4.4 mmHg
same,Average blood pressure,"[3]; 0.25 mg/kg p.o., 1 hour after administration",100.9 ± 7.4 mmHg
same,Average blood pressure,"[3]; 0.25 mg/kg p.o., 2 hour after administration",85.7 ± 0.3 mmHg
same,Average blood pressure,"[3]; 0.25 mg/kg p.o., 4 hour after administration",102.8 ± 3.9 mmHg
same,Average blood pressure,"[3]; 0.25 mg/kg p.o., 6 hour after administration",110.1 ± 2.6 mmHg
same,Average blood pressure,"[3]; 0.25 mg/kg p.o., 8 hour after administration",112.6 ± 3.4 mmHg
same,Average blood pressure,"[3]; 0.25 mg/kg p.o., 24 hour after administration",118.8 ± 4.8 mmHg
same,Average blood pressure,"[3]; 0.50 mg/kg p.o., 0 hour after administration",126.6 ± 0.5 mmHg
same,Average blood pressure,"[3]; 0.50 mg/kg p.o., 1 hour after administration",68.1 ± 7.4 mmHg
same,Average blood pressure,"[3]; 0.50 mg/kg p.o., 2 hour after administration",84.8 ± 6.1 mmHg
same,Average blood pressure,"[3]; 0.50 mg/kg p.o., 4 hour after administration",99.7 ± 12.3 mmHg
same,Average blood pressure,"[3]; 0.50 mg/kg p.o., 6 hour after administration",106.2 ± 9.5 mmHg
same,Average blood pressure,"[3]; 0.50 mg/kg p.o., 8 hour after administration",114.4 ± 7.3 mmHg
same,Average blood pressure,"[3]; 0.50 mg/kg p.o., 24 hour after administration",111.8 ± 3.9 mmHg
same,decrease in blood pressure,"[3]; oral, 0.25 and 0.5 mg/kg",successive decrease in blood pressure was observed
